# pIC50: −log10 of the molar value.
# Target: T1, VCAM-1/α4β1 integrin binding (Homo sapiens, UniProt P05556+P13612)
# T1 construct: Jurkat (ATCC TIB-152), known to express integrin α4β1; endogenous in cells; host or cells: Jurkat (ATCC TIB-152)
# Assay: Assay of antagonistic activity to VCAM-1/α4β1 integrin binding under the existence of blood serum (Jurkat cell adhesion to VCAM-1/Fc)
# Assay type: cell-based
# Details: Jurkat cells, recombinant human VCAM-1/Fc, 50% human blood serum
# Experimental: Assay of Antagonistic Activity to VCAM-1/α4β1 Integrin Binding Under the Existence of Blood Serum
# The capacity of a test substance antagonistic to the binding of cell strain of human T cells, Jurkat (ATCC TIB-152), known to express integrin α4β1, to VCAM-1 was determined.
# Fifty μl/well of a solution (500 ng/ml) of recombinant human VCAM-1/Fc (R & D systems) diluted with buffer A (0.1 M NaHCO3, pH 9.6) was added to a 96-well microtiter plate (Nunc Maxisorp). After the incubation at 4° C. overnight and washing once with PBS, a buffer (buffer B) obtained by diluting Block Ace (Snow Brand Milk Products Co., Ltd.) with PBS to ½ concentration was added in an amount of 150 μl/well. After the incubation at room temperature for 2 hours, buffer B was removed and the plate was washed with PBS once.
# Jurkat cells were washed with Dulbecco modified Eagle medium (SIGMA, hereinafter referred to as “DMEM”) once. Then, the cells were again suspended in a binding buffer (DMEM containing 20 mM HEPES, 0.1% BSA, 2 mM MnCl2 and 50% human blood serum (Sigma)) to become 1×10^6 cells/mL.
# Sixty μl of a test substance of various concentrations obtained by the dilution with the binding buffer was added to a round-bottom, 96-well plate (IWAKI). Immediately thereafter, 60 μl of the Jurkat cells (1×10^6 cells/ml) were added thereto and shaken on a plate shaker (IKA-Labortechnik, IKA-SCHUTTLER MTS-4) at 1000 rpm for 10 seconds. In 120 μL of the cell suspension to which the test substance was added, each 100 μL thereof was transferred on the VCAM-1/Fc-coated plate and incubated in dark place at room temperature for 60 minutes. After the shaking on the plate shaker at 1000 rpm for 30 seconds, the solution was immediately removed. Then, the unbound cells were removed by washing them with PBS once. A buffer C (PBS containing 0.82% Triton X-100) was added to the plate in an amount of 70 μL/well. After the shaking on the plate shaker at 1000 rpm for 5 minutes, the bound Jurkat cells were lysed. After centrifuging the cells on a plate centrifuge (SIGMA 4-15C) at room temperature at 2500 rpm for 5 minutes, 50 μL of supernatant thereof was transferred to a 96-well microtiter plate (Nunc Maxisorp). Each 50 μL of Substrate Buffer (Promega, CytoTox 96 Non-Radioactive Cytotoxicity Assay) was added thereto, shaken on a plate shaker at 1000 rpm for 10 seconds and reacted in dark place at room temperature for 30 minutes. Then, each 50 μL of Stop Solution (Promega, CytoTox 96 Non-Radioactive Cytotoxicity Assay) was added thereto and shaken on a plate shaker at 1000 rpm for 10 seconds. […] The absorbance thus obtained detects an activity of lactate dehydrogenase (LDH) dissolved in the supernatant of each well. Namely, the absorbance is proportional to the number of remaining Jurkat cells on the plate via the binding to VCAM-1. The test was conducted in duplicate and the binding rate of each test substance in various concentrations was determined while the absorbance of the test substance-free well was determined to be 100% and the absorbance of the Jurkat-cell-free well was determined to be 0%. The concentration for the 50% inhibition of binding, IC50, was calculated.
# T1 sequence (P13612 34-1032): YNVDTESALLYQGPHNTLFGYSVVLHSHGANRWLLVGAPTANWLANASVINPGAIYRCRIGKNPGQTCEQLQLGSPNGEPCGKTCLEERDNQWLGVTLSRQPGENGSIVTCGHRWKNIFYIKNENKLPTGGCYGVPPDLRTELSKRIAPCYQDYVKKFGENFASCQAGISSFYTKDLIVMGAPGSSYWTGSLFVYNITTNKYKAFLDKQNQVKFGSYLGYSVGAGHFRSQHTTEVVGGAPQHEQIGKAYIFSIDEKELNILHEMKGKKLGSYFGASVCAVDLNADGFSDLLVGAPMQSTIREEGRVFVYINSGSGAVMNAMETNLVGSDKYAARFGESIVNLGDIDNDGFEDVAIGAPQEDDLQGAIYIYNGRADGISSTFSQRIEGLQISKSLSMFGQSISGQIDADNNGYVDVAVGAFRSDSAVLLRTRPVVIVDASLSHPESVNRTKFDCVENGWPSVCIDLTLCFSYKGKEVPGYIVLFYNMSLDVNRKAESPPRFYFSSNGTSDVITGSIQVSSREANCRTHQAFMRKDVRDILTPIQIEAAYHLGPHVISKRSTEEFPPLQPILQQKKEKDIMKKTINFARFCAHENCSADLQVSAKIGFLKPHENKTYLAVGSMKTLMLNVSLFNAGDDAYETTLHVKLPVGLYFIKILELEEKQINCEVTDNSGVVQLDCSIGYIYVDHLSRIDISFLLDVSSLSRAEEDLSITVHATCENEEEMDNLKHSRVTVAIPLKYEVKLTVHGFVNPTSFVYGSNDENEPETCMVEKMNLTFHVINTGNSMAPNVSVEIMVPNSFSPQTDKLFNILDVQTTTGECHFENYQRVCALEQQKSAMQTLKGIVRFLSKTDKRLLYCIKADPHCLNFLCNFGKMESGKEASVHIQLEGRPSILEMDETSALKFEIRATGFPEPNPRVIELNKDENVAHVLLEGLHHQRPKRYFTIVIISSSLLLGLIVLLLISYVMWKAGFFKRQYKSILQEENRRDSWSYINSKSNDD
# T1 sequence (P05556 21-798): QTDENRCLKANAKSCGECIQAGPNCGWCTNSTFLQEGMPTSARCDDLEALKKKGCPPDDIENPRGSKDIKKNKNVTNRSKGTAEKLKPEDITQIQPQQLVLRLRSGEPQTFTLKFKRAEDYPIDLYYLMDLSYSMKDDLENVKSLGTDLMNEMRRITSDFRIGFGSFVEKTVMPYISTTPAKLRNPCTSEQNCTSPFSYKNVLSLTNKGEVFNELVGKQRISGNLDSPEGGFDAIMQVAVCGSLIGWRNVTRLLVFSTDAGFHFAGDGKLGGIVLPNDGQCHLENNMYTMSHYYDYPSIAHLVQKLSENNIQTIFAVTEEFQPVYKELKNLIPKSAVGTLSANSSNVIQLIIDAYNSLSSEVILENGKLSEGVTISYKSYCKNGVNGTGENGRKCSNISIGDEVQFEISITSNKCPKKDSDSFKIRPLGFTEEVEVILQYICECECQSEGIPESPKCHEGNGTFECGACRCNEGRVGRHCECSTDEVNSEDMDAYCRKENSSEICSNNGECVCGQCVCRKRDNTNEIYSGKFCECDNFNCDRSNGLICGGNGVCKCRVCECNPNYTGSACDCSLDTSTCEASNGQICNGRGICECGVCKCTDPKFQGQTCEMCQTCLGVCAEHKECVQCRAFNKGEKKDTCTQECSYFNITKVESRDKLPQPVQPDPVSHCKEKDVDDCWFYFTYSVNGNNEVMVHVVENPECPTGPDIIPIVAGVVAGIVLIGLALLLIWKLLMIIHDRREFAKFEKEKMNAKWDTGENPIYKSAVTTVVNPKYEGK
row,pIC50,SMILES
1,8.04,CNCCCOc1ccc2c(c1)c(=O)n(-c1ccc(C[C@H](NC(=O)c3c(Cl)cccc3Cl)C(=O)O)cc1)c(=O)n2C [Example 226]
2,7.88,Cn1c(=O)n(-c2ccc(C[C@H](NC(=O)c3c(Cl)cccc3Cl)C(=O)O)cc2)c(=O)c2cc(CN3CCCC3)ccc21 [Example 56]
3,8.28,CC(C)CCNCc1ccc2c(c1)c(=O)n(-c1ccc(C[C@H](NC(=O)c3c(Cl)cccc3Cl)C(=O)O)cc1)c(=O)n2C [Example 196]
4,7.64,CN1CCN(C)c2cc3c(cc21)c(=O)n(-c1ccc(C[C@H](NC(=O)c2c(Cl)cccc2Cl)C(=O)O)cc1)c(=O)n3C [Example 17]
5,7.93,"CNCCc1ccc2c(c1)c(=O)n(-c1ccc(C[C@H](NC(=O)c3c(Cl)cccc3Cl)C(=O)O)cc1)c(=O)n2C [Example 230, N-(2,6-dichlorobenzoyl)-4-{1-methyl-6-[2-(methylamino)ethyl]-2,4-dioxo-1,2,3,4-tetrahydroquinazoline-3(2H)-yl}-L-phenylalanine]"
6,8.05,CN(C)C1CCN(c2ccc3c(c2)c(=O)n(-c2ccc(C[C@H](NC(=O)c4c(Cl)cccc4Cl)C(=O)O)cc2)c(=O)n3C)C1 (stereo partly drawn) [Example 6]
7,8.08,"CCN(C)c1ccc2c(c1)c(=O)n(-c1ccc(C[C@H](NC(=O)c3c(Cl)cccc3Cl)C(=O)O)cc1)c(=O)n2C [Example 139, N-(2,6-dichlorobenzoyl)-4-[6-ethylmethylamino-1-methyl-2,4-quinazoline-dione-3-yl]-L-phenylalanine]"

# Tested on: lymphocytes in the peripheral blood
# Assay: Activity to elevate the number of lymphocytes in the peripheral blood in a rat
# Assay type: in vivo, male Wistar rat
# Details: oral, 3 mg/kg, 1 hour later, criterion 195% or more of vehicle group
# Experimental: Activity to Elevate the Number of Lymphocytes in the Peripheral Blood in a Rat
# The activity of the compounds of the present invention to elevate the number of lymphocytes in the rat was examined.
# A dosing solution was prepared by dissolving the compounds of the present invention to dimethylsulfoxide, adding the mixed solution of polyethylene glycol 400: propylene glycol=1:1 and turning it upside and down repeatedly. The final concentration of DMSO was adjusted to become 2.5%.
# The dosing solution of a test substance (3 mg/kg, 10 mg/kg or 30 mg/kg) was orally administered to a male Wistar rat (6 to 8 weeks age) in an amount of 4 mL/kg. After the settled time points after the administration, the blood was drawn from its abdominal large vein under anesthesia and stirred in a EDTA-2K coated container for blood collection. Then, the number of lymphocytes in the peripheral blood was determined by an automated comprehensive hematology analyzer (SF-3000, Sysmex). The test was executed in n=5, and the ratio (%) of the number of lymphocytes in the peripheral blood in a test-substance-administered group to that in a vehicle-treated group (a control group) was calculated while the average value of the number of lymphocytes in the peripheral blood in a control group was determined to be 100%.
row,SMILES,"Elevation of lymphocytes in the peripheral blood, pass/failure"
1,"COC(=O)[C@H](Cc1ccc(-n2c(=O)c3cncnc3n(C)c2=O)cc1)NC(=O)c1c(Cl)cccc1Cl [Example 129, N-(2,6-dichlorobenzoyl)-4-(1-methyl-2,4-dioxo-1,2,3,4-tetrahydropyrimido[4,5-d]pyrimidine-3(2H)-yl)-L-phenylalanine methylester]",◯ (pass (criterion measure or more))

# Same assay, conditions: oral, 10 mg/kg, 6 hours later, criterion 150% or more of vehicle group
row,SMILES,"Elevation of lymphocytes in the peripheral blood, pass/failure"
1,"CCCNCc1ccc2c(=O)n(-c3ccc(C[C@H](NC(=O)c4c(Cl)cccc4Cl)C(=O)OC(C)C)cc3)c(=O)n(C)c2c1 [Example 159, N-(2,6-dichlorobenzoyl)-4-[1-methyl-7-propylaminomethyl-2,4-quinazoline-dione-3-yl]-L-phenylalanine isopropylester]",◯ (pass (criterion measure or more))
2,"CNCc1ccc2c(=O)n(-c3ccc(C[C@H](NC(=O)c4c(Cl)cccc4Cl)C(=O)OCC(C)C)cc3)c(=O)n(C)c2c1 [Example 158, N-(2,6-dichlorobenzoyl)-4-[7-methylaminomethyl-1-methyl-2,4-quinazoline-dione-3-yl]-L-phenylalanine isobutylester]",◯ (pass (criterion measure or more))
3,"CNCc1ccc2c(=O)n(-c3ccc(C[C@H](NC(=O)c4c(Cl)cccc4Cl)C(=O)OC4CCCC4)cc3)c(=O)n(C)c2c1 [Example 157, N-(2,6-dichlorobenzoyl)-4-[7-methylaminomethyl-1-methyl-2,4-quinazoline-dione-3-yl]-L-phenylalanine cyclopentylester]",◯ (pass (criterion measure or more))
4,"CCNCc1ccc2c(=O)n(-c3ccc(C[C@H](NC(=O)c4c(Cl)cccc4Cl)C(=O)OC(C)C)cc3)c(=O)n(C)c2c1 [Example 156, N-(2,6-dichlorobenzoyl)-4-[7-ethylaminomethyl-1-methyl-2,4-quinazoline-dione-3-yl]-L-phenylalanine isopropylester]",◯ (pass (criterion measure or more))

# Same assay, conditions: oral, 30 mg/kg, 12 hours later, criterion 150% or more of vehicle group
row,SMILES,"Elevation of lymphocytes in the peripheral blood, pass/failure"
1,"CC(C)OC(=O)[C@H](Cc1ccc(-n2c(=O)c3cc(CO)ccc3n(C)c2=O)cc1)NC(=O)c1c(Cl)cccc1Cl [Example 234, N-(2,6-dichlorobenzoyl)-4-[6-(hydroxymethyl)-1-methyl-2,4-dioxo-1,2,3,4-tetrahydroquinazoline-3-(2H)-yl]-L-phenylalanine isopropylester]",◯ (pass (criterion measure or more))
2,"CNCc1cc2c(=O)n(-c3ccc(C[C@H](NC(=O)c4c(Cl)cccc4Cl)C(=O)OC(C)C)cc3)c(=O)n(C)c2cc1F [Example 184, Isopropyl (2S)-2-[(2,6-dichlorobenzoyl)amino]-3-[4-(7-fluoro-1-methyl-6-[(methylamino)methyl]-2,4-dioxo-1,2,3,4-tetrahydro-3(2H)-quinazolinyl)phenyl]propanoate]",◯ (pass (criterion measure or more))
3,"CC(C)OC(=O)[C@H](Cc1ccc(-n2c(=O)c3cc(CN)ccc3n(C)c2=O)cc1)NC(=O)c1c(Cl)cccc1Cl [Example 174, Isopropyl (2S)-3-[4-(6-(aminomethyl)-1-methyl-2,4-dioxo-1,2,3,4-tetrahydro-3(2H)-quinazolinyl)phenyl]-2-[(2,6-dichlorobenzoyl)amino]propanoate]",◯ (pass (criterion measure or more))
4,"CNCCc1cc2c(=O)n(-c3ccc(C[C@H](NC(=O)c4c(Cl)cccc4Cl)C(=O)OC(C)C)cc3)c(=O)n(C)c2cc1F [Example 228, N-(2,6-dichlorobenzoyl)-4-{7-fluoro-1-methyl-6-[2-(methylamino)ethyl]-2,4-dioxo-1,2,3,4-tetrahydroquinazoline-3(2H)-yl}-L-phenylalanine isopropylester]",◯ (pass (criterion measure or more))
5,"CNCc1ccc2c(c1)c(=O)n(-c1ccc(C[C@H](NC(=O)c3c(C)cccc3Cl)C(=O)OC(C)C)cc1)c(=O)n2C [Example 187, Isopropyl (2S)-2-[(2-chloro-6-methylbenzoyl)amino]-3-[4-(1-methyl-6-[(methylamino)methyl]-2,4-dioxo-1,2,3,4-tetrahydro-3(2H)-quinazolinyl)phenyl]propanoate]",◯ (pass (criterion measure or more))
6,"CC(C)OC(=O)[C@H](Cc1ccc(-n2c(=O)c3cc(OCCN(C)C)ccc3n(C)c2=O)cc1)NC(=O)c1c(Cl)cccc1Cl [Example 155, N-(2,6-dichlorobenzoyl)-4-[6-(2-dimethylaminoethoxy)-1-methyl-2,4-quinazoline-dione-3-yl]-L-phenylalanine isopropylester]",◯ (pass (criterion measure or more))
